Laboratory results from patent US20110098495A1, “Compositions and methods of omega polyunsaturated fatty acids for the treatment of oral diseases” (priority 2009, published 2011).
Values after ≈ are worked out from the molar mass of the structure shown.

Legend:
Assay type in all cases: cell-based
[1] = tested on: Candida albicans; experiment: Candida albicans growth inhibition; conditions: final concentration 25 μg/ml
Description: [The procedure below names another organism; the source lists this organism under the same test.] (§1) The inventor verified the test by dissolving 1 mg of omega-3 fatty acids (EPA, DHA, and ALA) and omega-6 fatty acids (ARA, GLA), omega-3 fatty acid methyl esters (EPA-ME, DHA-ME, ALA-ME), and omega-3 fatty acid ethyl esters (EPA-EE, DHA-EE, ALA-EE) in 1000 μl ethanol solution; took 1 (final concentration 1 μg/ml) and 5 μl (final concentration 5 μg/ml) solution by adding 100 μl of Streptococcus mutans in the culture medium cultured overnight at 37° C. After the overnight culture, the medium was diluted 1:10000 times, 5 μl of the diluted culture was applied to blood agar plate and cultured overnight. Calculated the number of colonies on the plates and compared with the control group to obtain the percentage of inhibition.

[2] = tested on: Actinobacillus actinomycetemcomitans; experiment: Actinobacillus actinomycetemcomitans growth inhibition; conditions: Aggregatibacter actinomycetemcomitans; final concentration 15 μg/ml
Description: [The procedure below names another organism; the source lists this organism under the same test.] as §1

[3] = tested on: Streptococcus mutans; experiment: Streptococcus mutans growth inhibition, colony count on blood agar plate vs control; conditions: overnight culture 37° C, colony count vs negative control, read-out: IC50 against Streptococcus mutans
Description: as §1

IC50 [3] [µg/mL]	Compound	inhibition at 25 µg/mL [1] [%]	inhibition at 15 µg/mL [2] [%]
–	CC/C=C\C/C=C\C/C=C\C/C=C\C/C=C\CCCC(=O)O [EPA, eicosapentaenoic acid]	50	50
–	CC/C=C\C/C=C\C/C=C\C/C=C\C/C=C\C/C=C\CCC(=O)O [DHA, docosahexaenoic acid]	50	50
~5 (≈ 16.4 µM)	CCCCC/C=C\C/C=C\C/C=C\C/C=C\CCCC(=O)O [ARA, arachidonic acid]	50	50
~5 (≈ 18 µM)	CCCCC/C=C\C/C=C\C/C=C\CCCCC(=O)O [GLA, γ-linolenic acid]	–	–
–	CC/C=C\C/C=C\C/C=C\CCCCCCCC(=O)O [ALA, α-linolenic acid]	50	50
